Experimental data published in publication PMC4664558 (Clinical Pharmacology and Therapeutics, 2015).
Where “and” joins values, the source holds several entries; their conditions need not be identical. Identical values can stand only once. Like-named read-outs stand apart in the source and are kept apart here.

Experiments:
[1] = tested on: rat L6 myotubes; assay: Myotoxicity in rat L6 myotubes; type: cell-based; settings: 10 μM for 5 days, compared to DMSO control
[2] = INPC cohort study: risk of myopathy after prescription of drug pairs; settings: adjusted for age and sex; for Risk2 (myopathy risk for drug 2): drug 2 only
[3] = cited from earlier work
[4] = Peak plasma / gut / hepatic inlet concentration at the highest clinical dose; type: in vivo, human; settings: for Inhibitor concentration ([I]): [I] equal to Cmax; for Maximal hepatic inlet concentration ([I]inlet,max): Cmax + (ka x Dose x FaFg/Qh)
[5] = peak total plasma concentration at the highest clinical dose; cited from earlier work
[6] = target: T1, CYP2D6 (Homo sapiens, UniProt P10635); assay: biochemical
[7] = target: T2, OATP1B2 (Rattus norvegicus, UniProt Q9QZX8); assay: Inhibition of E217βDG active uptake in cryopreserved rat hepatocytes; settings: for inhibition at 3 min, 100 μM: rat, cryopreserved rat hepatocytes, probe [3H] β-estradiol 17-β-D-glucuronide (E217βDG), 1 μM, 0.1 μCi; for Predicted R value: OATP1B1/1B3-based DDI, 1 + [I]inlet,max/Ki, Ki approximated by IC50
T2 sequence (Q9QZX8 1-687): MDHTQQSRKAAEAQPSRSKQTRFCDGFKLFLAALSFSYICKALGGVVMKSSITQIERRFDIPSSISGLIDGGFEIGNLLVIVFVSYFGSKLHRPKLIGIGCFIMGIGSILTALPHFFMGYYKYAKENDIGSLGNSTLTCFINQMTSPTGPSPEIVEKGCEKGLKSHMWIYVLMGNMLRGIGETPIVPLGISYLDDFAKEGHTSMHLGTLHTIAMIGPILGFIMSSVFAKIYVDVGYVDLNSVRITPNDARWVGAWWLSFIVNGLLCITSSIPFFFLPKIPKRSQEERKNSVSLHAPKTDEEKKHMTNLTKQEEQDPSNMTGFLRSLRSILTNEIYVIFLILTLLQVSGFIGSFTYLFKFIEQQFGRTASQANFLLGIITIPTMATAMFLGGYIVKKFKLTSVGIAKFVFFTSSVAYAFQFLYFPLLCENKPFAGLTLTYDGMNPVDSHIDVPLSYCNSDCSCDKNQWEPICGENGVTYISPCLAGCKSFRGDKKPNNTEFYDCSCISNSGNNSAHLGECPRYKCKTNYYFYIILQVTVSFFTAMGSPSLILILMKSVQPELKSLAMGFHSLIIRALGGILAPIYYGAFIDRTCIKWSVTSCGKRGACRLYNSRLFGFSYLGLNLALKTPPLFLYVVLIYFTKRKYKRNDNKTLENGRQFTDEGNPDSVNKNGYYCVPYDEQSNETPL

[8] = target: CYP2C19 (Homo sapiens, UniProt P33261); assay: Fluorometric CYP inhibition assay; type: biochemical; settings: for Ki: pathway CYP2C19
[9] = target: T3, CYP2C9 (Homo sapiens, UniProt P11712)
[10] = target: T1, CYP2D6
[11] = target: CYP3A4 (Homo sapiens, UniProt P08684)
[12] = target: T3, CYP2C9; assay: biochemical; settings: pathway CYP2C9
[13] = Dissociation constant (Ki), pathway CYP2D6
[14] = Unbound dissociation constant (Ki,u), pathway CYP2D6, Ki * fu,inc
[15] = Unbound dissociation constant (Ki,u), Ki * fu,inc

T1 sequence (P10635 whole entry): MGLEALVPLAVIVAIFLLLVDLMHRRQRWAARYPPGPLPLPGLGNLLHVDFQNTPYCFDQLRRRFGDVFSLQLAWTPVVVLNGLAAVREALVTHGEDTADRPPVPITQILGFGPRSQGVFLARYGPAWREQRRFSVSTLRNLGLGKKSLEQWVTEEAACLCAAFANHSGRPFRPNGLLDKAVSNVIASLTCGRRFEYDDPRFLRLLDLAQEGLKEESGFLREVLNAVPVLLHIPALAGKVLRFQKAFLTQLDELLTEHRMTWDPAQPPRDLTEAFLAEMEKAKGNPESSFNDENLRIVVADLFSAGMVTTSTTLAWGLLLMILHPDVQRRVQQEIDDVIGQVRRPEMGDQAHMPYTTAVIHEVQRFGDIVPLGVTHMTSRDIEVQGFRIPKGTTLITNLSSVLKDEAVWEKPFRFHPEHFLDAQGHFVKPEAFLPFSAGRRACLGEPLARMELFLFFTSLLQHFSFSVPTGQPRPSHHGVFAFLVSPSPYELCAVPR
CYP2C19, sequence (P33261 whole entry): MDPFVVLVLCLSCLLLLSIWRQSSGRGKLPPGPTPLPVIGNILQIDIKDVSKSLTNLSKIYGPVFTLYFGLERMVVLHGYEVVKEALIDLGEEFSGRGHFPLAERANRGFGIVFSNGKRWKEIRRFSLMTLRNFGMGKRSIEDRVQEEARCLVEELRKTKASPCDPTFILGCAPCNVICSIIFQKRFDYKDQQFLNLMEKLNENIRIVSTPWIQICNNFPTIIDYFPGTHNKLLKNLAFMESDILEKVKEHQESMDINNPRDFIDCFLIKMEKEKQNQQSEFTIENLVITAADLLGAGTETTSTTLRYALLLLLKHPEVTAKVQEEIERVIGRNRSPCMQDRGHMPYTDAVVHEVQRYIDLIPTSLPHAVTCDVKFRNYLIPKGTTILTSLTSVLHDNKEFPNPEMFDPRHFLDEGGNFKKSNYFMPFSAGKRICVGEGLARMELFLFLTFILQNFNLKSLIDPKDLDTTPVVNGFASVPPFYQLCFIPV
T3 sequence (P11712 whole entry): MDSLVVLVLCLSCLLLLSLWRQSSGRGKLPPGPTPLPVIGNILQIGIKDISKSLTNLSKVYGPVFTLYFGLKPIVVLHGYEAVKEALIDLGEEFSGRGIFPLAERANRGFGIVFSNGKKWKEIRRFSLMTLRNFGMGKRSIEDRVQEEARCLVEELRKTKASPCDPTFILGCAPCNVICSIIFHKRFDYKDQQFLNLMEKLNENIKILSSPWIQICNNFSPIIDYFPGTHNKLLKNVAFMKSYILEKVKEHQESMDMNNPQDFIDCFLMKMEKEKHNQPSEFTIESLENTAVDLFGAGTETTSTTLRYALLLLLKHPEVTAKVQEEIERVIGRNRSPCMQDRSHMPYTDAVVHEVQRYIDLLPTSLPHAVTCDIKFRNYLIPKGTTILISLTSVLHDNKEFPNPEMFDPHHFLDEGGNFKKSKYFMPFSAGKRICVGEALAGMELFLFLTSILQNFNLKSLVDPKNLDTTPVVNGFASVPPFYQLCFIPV
CYP3A4, sequence (P08684 whole entry): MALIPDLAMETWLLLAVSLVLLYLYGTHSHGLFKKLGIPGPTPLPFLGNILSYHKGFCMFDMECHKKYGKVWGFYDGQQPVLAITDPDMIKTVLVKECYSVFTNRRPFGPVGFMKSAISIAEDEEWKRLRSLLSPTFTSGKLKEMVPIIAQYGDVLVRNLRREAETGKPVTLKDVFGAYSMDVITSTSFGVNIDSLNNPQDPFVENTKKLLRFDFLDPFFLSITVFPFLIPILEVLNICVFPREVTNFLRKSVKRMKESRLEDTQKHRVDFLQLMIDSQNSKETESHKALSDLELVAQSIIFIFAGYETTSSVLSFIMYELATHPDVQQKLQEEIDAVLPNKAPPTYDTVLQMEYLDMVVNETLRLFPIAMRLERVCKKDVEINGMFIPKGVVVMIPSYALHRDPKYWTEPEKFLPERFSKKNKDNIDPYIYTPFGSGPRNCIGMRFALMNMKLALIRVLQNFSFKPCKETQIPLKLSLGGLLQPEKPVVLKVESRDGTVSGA

SMILES | myotube death [1] | Risk2 (myopathy risk for drug 2) [2] | Inhibitor concentration ([I]) [4] | Peak plasma concentration (Cmax) [5] | inhibition at 3 min, 100 μM [7] | Maximal hepatic inlet concentration ([I]inlet,max) [4] | also measured
CCC(C)(C)C(=O)O[C@H]1C[C@@H](C)C=C2C=C[C@H](C)[C@H](CC[C@@H]3C[C@@H](O)CC(=O)O3)[C@H]21 [Simvastatin] | 73.7 ± 2.6% | 0.033 |  |  |  |  | 
COCc1c(C(C)C)nc(C(C)C)c(/C=C/[C@@H](O)C[C@@H](O)CC(=O)O)c1-c1ccc(F)cc1 [cerivastatin] |  |  |  |  |  |  | risk of rhabdomyolysis relative to other statins [3]: 10 fold; risk of rhabdomyolysis relative to other statins ([3]; with concurrent use of gemfibrozil): 50 fold
CCCN(CCC)CCc1cccc2c1CC(=O)N2 [Ropinirole] |  | 0.018 | 0.103 µM | 26.9 (37) ng/ml | 23.7 ± 2.7% |  | Ki [6, 13]: 850 nM; Ki [6, 14]: 710 nM
Clc1ccc2c(c1)CCc1cccnc1C2=C1CCNCC1 [Desloratadine] | 73.3 ± 1.1% |  |  |  |  |  | 
COc1ccc2[nH]c([S+]([O-])Cc3ncc(C)c(OC)c3C)nc2c1 (stereo not drawn) [Omeprazole] |  | 0.059 |  |  | 60.1 ± 4.8% | 19.586 µM | IC50 [7]: 84.3 µM; Predicted R value [7]: 1.23
CCOC(=O)N1CCC(=C2c3ccc(Cl)cc3CCc3cccnc32)CC1 [Loratadine] |  |  | 0.011 µM |  |  |  | Risk1 (myopathy risk for drug 1) ([2]; drug 1 only): 0.022 and 0.020
[H]/N=C(/NCCCCC)N/N=C/c1c[nH]c2ccc(OC)cc12 [Tegaserod] | 97.9 ± 0.4% | 0.020 | 0.009 µM | 2.7 (39) ng/ml | 24.6 ± 15.3% |  | Predicted R-values [8]: 1.00; Ki ([8]; Dissociation constant (Ki)): 9.2 µM; Ki [8, 15]: 8.48 µM; Predicted R-values [9]: 1.00; Predicted R-values [10]: 1.02; Predicted R-values [11]: 1.17; Ki ([12]; Dissociation constant (Ki)): 11.4 µM; Ki [12, 15]: 10.5 µM; Ki [6, 13]: 510 nM; Ki [6, 14]: 470 nM
CCC(C)(C)C(=O)O[C@H]1C[C@@H](C)C=C2C=C[C@H](C)[C@H](CC[C@@H](O)C[C@@H](O)CC(=O)O)[C@H]21 [Simvastatin acid] | 33.0 ± 2.1% |  |  |  |  | 12.274 µM | 
CC(CN1c2ccccc2Sc2ccccc21)N(C)C (stereo not drawn) [Promethazine] |  |  | 0.068 µM | 19.3 (36) ng/ml | 17.7 ± 7.7% |  | Ki ([6]; Dissociation constant (Ki)): 250 nM; Ki ([6]; Unbound dissociation constant (Ki,u)): 220 nM
Cc1nnc2n1-c1ccc(Cl)cc1C(c1ccccc1)=NC2 [Alprazolam] |  | 0.029 |  |  | 54.5 ± 0.3% | 0.981 µM | IC50 [7]: 99.5 µM; Predicted R value [7]: 1.01
